Test results taken from patent publication US20130059866A1, “NOVEL PIPERIDINO-DIHYDROTHIENOPYRIMIDINE SULFOXIDES AND THEIR USE FOR TREATING COPD AND ASTHMA” (BOEHRINGER INGELHEIM INTERNATIONAL GMBH, priority 2011, published 2013).
pIC50: −log10 of the molar value.

Columns and labels:
conscious rats [1] = assay: Gastric emptying in conscious rats (barium sulfate test meal); assay type: in vivo, rat
Description: (§1) In order to evaluate whether the compounds of the present invention lead to gastrointestinal side effects the compounds of the invention have been administered to rats 30 minutes before the rats were fed with a test meal comprising barium sulfate. After that it was tested whether gastric emptying and/or gastrointestinal transit in these rats was affected by the presence of these compounds.
The effects of the compounds Example 1 and Example 2 on gastric emptying and gastrointestinal transit in conscious rats has been investigated as described below. Wistar rats of both sexes weighing 130-160 g (ages: male 7 wk, female 8 wk) were used. The animals are obtained from an approved local distributor, a minimum of four days quarantine is required before use, during which time the animals are maintained under routine animal care procedures. Groups of up to 5 animals are housed in cages in a room with controlled temperature and humidity and a light/dark cycle with the lights on from 6 a.m. to 6 p.m. The animals have access to normal rodent chow and water ad libitum. The animals are transported to the laboratory on the day of experimentation. Gastric emptying as well as small intestinal propulsion are determined using a barium sulfate test meal.
Five rats Crl:WI(Han) of each sex (n=10) were used. The animals were deprived of food 17 h prior to the experiment but allowed free access to water. The drug under investigation (drug was suspended to the concentration of 10 ml/kg body weight in 0.5% Natrosol solution) or the negative control (vehicle alone was given 10 ml/kg body weight) was administered 30 min (p.o.) before the test meal at doses calculated to be 3-fold, 10-fold or 30-fold the ED50 found in efficacy studies in the rat.
The test meal (suspension of 7.5 g barium sulfate in 10 ml salt-free water) is given orally by gavage at a dose of 2 ml/100 g body weight. Thirty minutes after the administration of the test meal the animals were killed in deep isoflurane anaesthesia by cervical dislocation. The stomach and the intestine were then exposed by laparatomy and removed.
The removed stomach was weighed, then incised, the contents removed and the empty stomach is weighed again.
The gastric content was calculated from the weight difference between the filled and empty stomach and normalized to 100 g body weight. Thus, an increase in weight difference indicated an impaired gastric emptying, whereas a decrease in weight difference indicated an enhanced gastric emptying.
Data are expressed as mean±standard deviation (SD). For each dose, comparisons were performed using an analysis of variance (ANOVA) and a post hoc Dunnett test to compare the various groups to the controls when the ANOVA was significant. p<0.05 was considered significant.

PDE4B = molecular target: T1, PDE4B (Homo sapiens, UniProt Q07343); assay: PDE4B Scintillation Proximity (SPA) Assay; assay type: biochemical; settings: PDE4B active site fragment amino acids 152-484, [3H]cAMP, 30° C., one hour; read-out: Experimentally determined IC50-value for PDE4B inhibition
T1 construct: active site fragment comprising the amino acids 152-484
T1 sequence (Q07343 324-656): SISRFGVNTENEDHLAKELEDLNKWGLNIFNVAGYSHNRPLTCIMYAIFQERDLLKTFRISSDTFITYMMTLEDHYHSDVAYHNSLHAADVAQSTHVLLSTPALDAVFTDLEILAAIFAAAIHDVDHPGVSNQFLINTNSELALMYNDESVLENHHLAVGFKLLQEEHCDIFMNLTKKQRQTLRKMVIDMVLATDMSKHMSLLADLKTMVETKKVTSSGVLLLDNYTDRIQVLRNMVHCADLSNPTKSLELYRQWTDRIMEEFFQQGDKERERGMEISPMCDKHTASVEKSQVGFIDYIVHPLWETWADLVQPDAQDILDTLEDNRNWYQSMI
Description: The IC50-values of the compounds of the invention (Example Compounds 1 and 2) and of the above-mentioned prior art compounds A to D with respect to their PDE4B-inhibiting ability have been determined with a Scintillation Proximity (SPA) Assay (GE Healthcare, No. TRKQ7090).
The Scintillation Proximity (SPA) Assay is based on the detection of the different affinities of the cyclic 3′-5′-adenosine monophosphate (cAMP, low affinity) and the linear 5′-adenosine monophosphate (AMP, high affinity) to yttrium-silicate-scintilator beads. The cAMP-specific phosphodiesterase (PDE) PDE4B cleaves the 3′-phosphodiester bond of the tritium-labelled-[^3H]cAMP to the [^3H]5′-AMP. This [^3H]5′-AMP associates with the scintillator beads because of their higher affinity and causes scintillations (light flashes) which can be measured in a Wallac Microbeta Scintillation Counter.
10 μl of a [^3H]cAMP-solution (0.05 μCi in H2O, 10-30 Ci/mmol) are added to 89 μl of a PDE4B-enzyme-solution (active site fragment comprising the amino acids 152-484; 0.15-0.18 ng) in assay buffer (50 mM Tris HCl pH 7.5; 8.3 mM MgCl2; 1.7 mM ethylene glycol tetraacetic acid (EGTA); 0.25 mg/ml bovine serum albumin (BSA)) and this mixture is incubated at 30° C. for one hour
a) without the compound to be tested (in the presence of 1 μl dimethylsulfoxide (DMSO), corresponding to 1% DMSO) and b) in the presence of the compound to be tested in a concentration of 125 μM, 25 μM, 5 μM, 1 μM, 200 nM, 40 nM, 8 nM, 1.6 nM, 0.32 nM, 0.064 nM, 0.0128 nM (dilution series in 5er-steps beginning from 125 μM until 0.0128 nM, in the presence of 1% DMSO).
After this incubation the reaction is stopped by the addition of 50 μl of bead-solution (500 mg beads/35 ml H2O, 18 mM zinc sulfate). In the following 45 minutes the beads have the opportunity to form a sediment. After that the scintillations are measured in the scintillation counter. If the tested compound is able to inhibit the enzymatic activity of the PDE4B-enzyme, less [^3H]AMP depending on the concentration of the tested compound is produced and less scintillations are measurable. […] The IC50-value stands for the compound concentration at which the PDE4B enzyme activity is inhibited to a half maximal value. Therefore the lower the IC50-value is the better is the PDE4B inhibition.

conscious rats [2] = assay: Gastrointestinal (intestinal) transit in conscious rats (barium sulfate test meal); assay type: in vivo, rat; settings: all tested doses up to the 30-fold ED50 dose p.o.
Description: as §1
The effects of the compounds Example 1 and Example 2 on gastric emptying and gastrointestinal transit in conscious rats has been investigated as described below. Wistar rats of both sexes weighing 130-160 g (ages: male 7 wk, female 8 wk) were used. […] Gastric emptying as well as small intestinal propulsion are determined using a barium sulfate test meal. […]
The length of gut traversed with barium sulfate in relation to the whole length of the gut is determined by direct measurements using a ruler.
The length of gut traversed with barium sulphate (as judged by visual inspection) in relation to the whole length of the gut (from the pylorus to the rectum) is determined by direct measurements using a ruler.
Intestinal transit is calculated as the percentage movement of barium sulphate in the intestine in relation to the whole length of the gut. […]
Data are expressed as mean±standard deviation (SD). […]

[3] = tested on: LPS-induced neutrophil influx into bronchoalveolar lavage fluid of male Wistar rats; assay: Inhibition of LPS-induced neutrophil influx into bronchoalveolar lavage fluid (LPS-induced lung inflammation model); assay type: in vivo; settings: ED50 found in efficacy studies in the rat
Description: The anti-inflammatory activity of Examples 1 and 2 and of Prior art compounds A and D was assessed in an in vivo LPS-induced lung inflammation model in rats.
As a measure of the pharmacological potency of the above mentioned compounds the half-maximal effective dose (ED50) in regard to the inhibition of lipopolysaccharide-induced (LPS-induced) neutrophil influx into the bronchoalveolar lavage fluid (BALF) was determined by assessing the dose response relationship. Bacterial endotoxins (lipopolysaccharides [LPS]) are components of the outer bacterial cell membrane which play an important role in the pathogenesis of infections with gram-negative bacteria. It is known that inhalation of such aerosolized LPS induces a dose-dependent increase in neutrophils to lung tissues and airspaces in rats which may be detected by analyzing the amount of neutrophils in the bronchoalveolar lavage fluid (BALF). […]
Determination of neutrophil content of the BALF was performed using an ADVIA 120 blood hemacytometer (Bayer Diagnostics). Neutrophil data were normalised (Positive Control (=LPS treatment alone)=100%, Negative Control (no LPS treatment, administration of “vehicle only”)=0%) and expressed as percent of LPS control. The ED50 was calculated using a nonlinear fit (with the Graph Pad Prism software and a sigmoidal dose response fit). […]

For [O-][S+]1CCc2nc(N3CCC(c4ccc(Cl)cc4)CC3)nc(NC3(CO)CCC3)c21 (single isomer, unassigned) [Example 1], which “gastric emptying vs negative control” value (conscious rats [1]; 3-fold ED50 dose p.o., 30 min before test meal) is on record?
The value was “no relevant differences”.

What about the “gastric emptying vs negative control” value (conscious rats [1]; 10-fold ED50 dose p.o., 30 min before test meal) of the same compound?
Its value is “no relevant differences”.

What about the “gastric emptying vs negative control (weight difference per body weight)” value (conscious rats [1]; 30-fold ED50 dose p.o., 30 min before test meal) of the same compound?
Its value is “only a very moderate enhancement”.

And the pIC50 (PDE4B)?
The pIC50 was 8.37.

What about the “intestinal transit vs negative control” value (conscious rats [2]) of the same compound?
The value was “no significant differences”.

What about the “ED50 as restated in the dose table of the gastrointestinal study” value [3] of the same compound?
The value was “(ED50 = 0.31 mg/kg BW”.

[O-][S+]1CCc2nc(N3CCC(c4ncc(Cl)cn4)CC3)nc(NC3(CO)CCC3)c21 (single isomer, unassigned) [Example 2] was tested. Which “gastric emptying vs negative control” value (conscious rats [1]; all tested doses (3-, 10-, 30-fold ED50) p.o.) did it give?
The value was “no relevant differences”.

And the pIC50 (PDE4B)?
The pIC50 was 8.14.

And the “intestinal transit vs negative control” value (conscious rats [2])?
The value was “no relevant differences”.

What about the “ED50 as restated in the dose table of the gastrointestinal study” value [3] of the same compound?
The value was “(ED50 = 0.1 mg/kg BW”.

With [O-][S+]1CCc2nc(N3CCC(c4ccc(Cl)cc4)CC3)nc(NC3(CO)CC3)c21 (centres unmarked) [Prior art compound A] as the compound, how does the pIC50 (PDE4B) read?
Its pIC50 is 8.48.

How did the pIC50 (PDE4B) turn out when [O-][S+]1CCc2nc(N3CCC(c4c[nH]cn4)CC3)nc(NC3(CO)CC3)c21 (centres unmarked) [Prior art compound B] was run?
Its pIC50 is 7.18.

With [O-][S+]1CCc2nc(N3CCC(c4ccncc4)CC3)nc(NC3(CO)CC3)c21 (centres unmarked) [Prior art compound C] as the compound, how does the pIC50 (PDE4B) read?
Its pIC50 is 7.36.

With [O-][S+]1CCc2nc(N3CCC(c4cccc(Cl)c4)CC3)nc(NC3(CO)CC3)c21 (centres unmarked) [Prior art compound D] as the compound, how does the pIC50 (PDE4B) read?
The pIC50 was 8.14.
